# Data taken from patent publication US20110098177A1, “METHODS AND COMPOSITIONS OF PLANT MICRONUTRIENTS” (NOVUS INTERNATIONAL INC., priority 2006, published 2011).
# Tests used:
# Type in all cases: in vivo
# [1] = system: Tygress tomato plants; assay: Foliar nutrient concentration 2 weeks after treatment, greenhouse tomato (Examples 4-6); conditions: for B concentration in tomato leaves / Ca concentration in tomato leaves / Cu concentration in tomato leaves / Fe concentration in tomato leaves / K concentration in tomato leaves / Mg concentration in tomato leaves / Mn concentration in tomato leaves / N concentration in tomato leaves / P concentration in tomato leaves: 2 weeks after treatment
# In short: (§1)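 Tygress tomato in 2-gallon pots of micronutrient-poor medium (negligible Fe, Zn, Mn, Cu) in greenhouse; foliar treatments at 5 WAT in 200 mL/plant water with non-ionic surfactant. Newest non-applied leaves analysed 2 weeks before and after treatment; marketable fruit harvested three times from 10 WAT, graded. RCBD, 6 replications, LSD 5%.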
# [2] = system: Tygress tomato plants; assay: Yields of tomato fruits, greenhouse (Examples 4-6); conditions: for Marketable yield: tomato fruits
# In short: as §1
# [3] = system: Tygress tomato plants; assay: Plant injury observed after BIOX-A foliar application, greenhouse tomato (Example 6); conditions: BIOX-A at concentrations of 2.86 or higher
# Protocol: The following experiments were performed in a green house during the fall of 2008 and spring of 2009 at GCREC, Balm, University of Florida. Crop set-up, procedures and variables were as follows. […] Irrigation and non-micronutrient fertilizer were provided daily through microsprinklers at recommended rates for tomato production in Florida. No pesticides were used. Treatments were as described in Tables 4, 5 and 6 below. […] Treatments were applied at 5 WAT (weeks after transplanting) using a water volume of 200 mL/plant. A non-ionic surfactant was added. […] There were no significant differences between the foliar nutrient concentration of the leaves of any of the treatment groups prior to treatment.
smiles,measurement,setting,value
"CSCCC(O)C(=O)O (stereo not shown) [BIOX-A, 2-hydroxy-4(methylthio)butanoic acid]",B concentration in tomato leaves,[1]; BIOX-A 0.69 lb/acre,27 ppm
same,Ca concentration in tomato leaves,[1]; BIOX-A 0.69 lb/acre,0.5%
same,Cu concentration in tomato leaves,[1]; BIOX-A 0.69 lb/acre,29 ppm
same,Fe concentration in tomato leaves,[1]; BIOX-A 0.69 lb/acre,85 ppm
same,K concentration in tomato leaves,[1]; BIOX-A 0.69 lb/acre,3.2%
same,Mg concentration in tomato leaves,[1]; BIOX-A 0.69 lb/acre,0.3%
same,Mn concentration in tomato leaves,[1]; BIOX-A 0.69 lb/acre,56 ppm
same,N concentration in tomato leaves,[1]; BIOX-A 0.69 lb/acre,3.4%
same,P concentration in tomato leaves,[1]; BIOX-A 0.69 lb/acre,0.6%
same,B concentration in tomato leaves,[1]; BIOX-A 1.37 lb/acre,28 ppm
same,Ca concentration in tomato leaves,[1]; BIOX-A 1.37 lb/acre,0.6%
same,Cu concentration in tomato leaves,[1]; BIOX-A 1.37 lb/acre,31 ppm
same,Fe concentration in tomato leaves,[1]; BIOX-A 1.37 lb/acre,88 ppm
same,K concentration in tomato leaves,[1]; BIOX-A 1.37 lb/acre,3.4%
same,Mg concentration in tomato leaves,[1]; BIOX-A 1.37 lb/acre,0.3%
same,Mn concentration in tomato leaves,[1]; BIOX-A 1.37 lb/acre,55 ppm
same,N concentration in tomato leaves,[1]; BIOX-A 1.37 lb/acre,3.7%
same,P concentration in tomato leaves,[1]; BIOX-A 1.37 lb/acre,0.4%
same,B concentration in tomato leaves,[1]; BIOX-A 2.86 lb/acre,28 ppm
same,Ca concentration in tomato leaves,[1]; BIOX-A 2.86 lb/acre,0.6%
same,Cu concentration in tomato leaves,[1]; BIOX-A 2.86 lb/acre,50 ppm
same,Fe concentration in tomato leaves,[1]; BIOX-A 2.86 lb/acre,87 ppm
same,K concentration in tomato leaves,[1]; BIOX-A 2.86 lb/acre,3.3%
same,Mg concentration in tomato leaves,[1]; BIOX-A 2.86 lb/acre,0.1%
same,Mn concentration in tomato leaves,[1]; BIOX-A 2.86 lb/acre,54 ppm
same,N concentration in tomato leaves,[1]; BIOX-A 2.86 lb/acre,3.1%
same,P concentration in tomato leaves,[1]; BIOX-A 2.86 lb/acre,0.4%
same,B concentration in tomato leaves,[1]; BIOX-A 5.52 lb/acre,24 ppm
same,Ca concentration in tomato leaves,[1]; BIOX-A 5.52 lb/acre,0.6%
same,Cu concentration in tomato leaves,[1]; BIOX-A 5.52 lb/acre,28 ppm
same,Fe concentration in tomato leaves,[1]; BIOX-A 5.52 lb/acre,90 ppm
same,K concentration in tomato leaves,[1]; BIOX-A 5.52 lb/acre,2.1%
same,Mg concentration in tomato leaves,[1]; BIOX-A 5.52 lb/acre,0.1%
same,Mn concentration in tomato leaves,[1]; BIOX-A 5.52 lb/acre,53 ppm
same,N concentration in tomato leaves,[1]; BIOX-A 5.52 lb/acre,2.7%
same,P concentration in tomato leaves,[1]; BIOX-A 5.52 lb/acre,0.5%
same,B concentration in tomato leaves,[1]; BIOX-A 8.28 lb/acre,25 ppm
same,Ca concentration in tomato leaves,[1]; BIOX-A 8.28 lb/acre,0.5%
same,Cu concentration in tomato leaves,[1]; BIOX-A 8.28 lb/acre,25 ppm
same,Fe concentration in tomato leaves,[1]; BIOX-A 8.28 lb/acre,9 ppm
same,K concentration in tomato leaves,[1]; BIOX-A 8.28 lb/acre,0.9%
same,Mg concentration in tomato leaves,[1]; BIOX-A 8.28 lb/acre,0.1%
same,Mn concentration in tomato leaves,[1]; BIOX-A 8.28 lb/acre,57 ppm
same,N concentration in tomato leaves,[1]; BIOX-A 8.28 lb/acre,1.7%
same,P concentration in tomato leaves,[1]; BIOX-A 8.28 lb/acre,0.6%
same,"Effect on foliar concentration of N, P, K, Mg, Ca, B, Mn, Fe and Zn relative to the control","[1]; BIOX-A, all applied concentrations, P>0.05",None of the applied concentrations of BIOX-A had a significant effect
same,Marketable and unmarketable yields (in words),[2]; 1.37 lb/acre or less of BIOX-A,statistically similar
same,Marketable yield,[2]; BIOX-A 0.69 lb/acre,2.3 lb/plant
same,Marketable yield,[2]; BIOX-A 1.37 lb/acre,2.4 lb/plant
same,Marketable yield,[2]; BIOX-A 2.86 lb/acre,1.1 lb/plant
same,Marketable yield,[2]; BIOX-A 5.52 lb/acre,0 lb/plant
same,Marketable yield,[2]; BIOX-A 8.28 lb/acre,0 lb/plant
same,Non-marketable tomato yields compared with control (in words),[2]; BIOX-A at concentrations of 2.86 or higher,significantly higher non-marketable tomato yields than control
same,Marketable tomato yields (in words),"[2]; BIOX-A at concentrations of 2.86 or higher, P<0.05",significantly decreased
same,Plant injury (in words),[3],severely injured tomato plants
